The conditions of data set [1]: in vivo; cited from earlier work.
Data set [2] relates to Cognitively healthy young adult male Wistar rats. In words: Passive avoidance test, scopolamine given 7 days after end of supplementation. It is filed as in vivo, rat.
Experimental: Cognitively healthy young adult male Wistar rats weighing 260-280 g were randomly ascribed to groups and supplemented daily with aqueous solution of 5 mg/kg of compound of formula (I) in water of the invention for seven consecutive days. Then, after the break in the supplementation for next seven days, scopolamine 1 mg/kg i.p. or vehicle was administered (at day 14) 30 min before the acquisition trial in the passive avoidance test (“Compound (I)+Scopolamine” group). In “Vehicle+Vehicle” group, rats received vehicle for seven consecutive days and then vehicle 30 min before the acquisition trial in the passive avoidance test at 14th day. In “Vehicle+Scopolamine” group, rats received vehicle for seven consecutive days and then scopolamine 1 mg/kg i.p. 30 min before the acquisition trial in the passive avoidance test at 14th day. […] Passive avoidance test requires the rats to behave contrary to their innate tendencies for preference of dark areas and avoidance of bright ones. The apparatus used in this test is composed by a dark compartment and a bright compartment. The latency to enter the dark chamber was measured using 300 s maximum trial duration. In the acquisition trial, the animal received a 0.4 mA electric shock for 3 s when entering the dark chamber. Retention trial was performed 24 h after the acquisition trial. […]

Consider `C[N+](C)(C)CCO` [compound of formula (I), choline succinate (2:1)], for which the elimination half-life entry in data set [1] is recorded as “less than 1.2 h”. Further, the “Relative risk of disturbance of cognitive function” value in data set [2] (as compared to Vehicle+Scopolamine group) stood at 0.51. The “Rate of disturbance of cognitive function (latency <207 s)” value in data set [2] (retention trial, scopolamine 1 mg/kg i.p.) was determined as 0.36.

The values are drawn from patent US20180028473A1, “NUTRIENTS SOLUTIONS” (Mitochondrial Substrate Invention Ltd., priority 2014, published 2018).
